Test results reported in patent US4968819A, “Process for the preparation of chromene derivatives” (Alkaloida Vegyeszeti Gyar, priority 1983, dated 1990).
Entries after “also recorded” stand apart in the source; their conditions may differ. Like-named read-outs stand apart in the source and are kept apart here.

Tests used:
[1] = pK by potentiometrical titration; format: physicochemical; settings: 7-OH
Description: (§1) This difference can be strengthened by deliberate direction of the reaction conditions to such an extent that selective mono-O-substitution can be carried out with excellent yields. It has been confirmed by various measurements and calculations (PMR, CMR, UV-VLS spectrophotometrical and potentiometric acid-base titrations, pK determinations, "all valence" CNDO quantumchemical calculations. electrostatical potential map calculation) that the hydroxy group in position 7 is the most reactive while the hydroxy groups in positions 5, 6 and 8, respectively, are less reactive.
(1.) is determined by potentiometrical titration and […]

[2] = pK by spectrophotometrical measurement; format: physicochemical; settings: for pK7 (2.): 7-OH; for pKX (2.): second OH, X = 5, 6 or 8
Description: as §1
(2.) according to spectrophotometrical measurement).

[3] = system: tomato root gall nematode (Meloidogyne incognita); assay: Tomato root gall nematode test (II. stage infective larvae, treated NGM agar plate); format: in vivo; settings: 72 hours; for mortality at 200 µg/mL / mortality at 400 µg/mL: Meloidogyne incognita
Procedure: (6) Root gall nematode The test is carried out on II. stage infective larvae, which are collected from the root of tomato plant, placed on a filter and incubated in sterile water at 25° C. The hatched larvae are collected every 24 hours and immediately placed onto the treated nutrient medium. As nutrient medium NGM agar plate free from bacterial is used. 0.5 ml of the acetoneous solution of the test compound is applied onto the surface of the plate in a Petri-dish. After the acetone has evaporated 5 μl of the larva suspension is applied onto each plate. After 72 hours the surviving and killed insects are counted.

[4] = system: cotton bug (Dysdercus fasciatus); assay: Cotton bug test (topical application on II. stage larvae); format: in vivo; settings: for AJH effect: adultoid symptoms
Procedure: (1) Cotton bug test A dilution series is prepared from the test compound with acetone and 0.2 μl of each dilution is topically applied onto the back part of larvae of the II. stage of growth with the aid of a Hamiltion syringe. The active ingredient is absorbed through the cuticula. The animals are kept in a large glass and fed with cotton grains and water. After adult shedding the surviving insects are observed for eventual adultoid symptoms, the egg-reproduction and the development of the ovules is evaluated too. (Remark: in the cotton bug test 50 insects are used).

[5] = system: Caenorhabditis elegans; assay: Caenorhabditis elegans test (treated NGM agar plate, young adults); format: in vivo
Procedure: (5) Caenorhabditis elegans 0.5 ml of the acetonous solution of the test compound is applied onto a NGM agar plate free from bacteria in a Petri dish. After the acetone has dried 25-30 young adults are placed on the plate. After 24 hours the surviving and killed insects are counted.

[6] = system: insects; settings: compared with P2; listed as P3; cited from earlier work
[7] = system: domestic fly (Musca domestica); assay: Domestic fly test (larvae in treated nutrient medium); format: in vivo; settings: 0.1% related to milk, 0.05% related to total nutrient medium
Procedure: The fly larvae are grown on a nutrient medium of the following composition: 2 ml of milk; 2 ml of water; 2 g of wheat bran; 0.1 ml of saturated alcoholic nipagin solution.
The nutrient medium is filled into cylindrical glass vials (30×100 mm) and 25 fly larvae are raised in each vial. The test compound is dissolved in milk; the end concentration (related to milk) amounts to 0.1% which corresponds to 0.05% (related to the total nutrient medium). The solution of the active ingredient is admixed with the nutrient medium whereupon […] of domestic fly larvae of the I. stage are placed into each vial and the vials are closed with a hard cotton-wool stopper. The nymphs emerging from the larvae are collected in each vial, counted and kept in a Petri dish (diameter 25 mm) until flies hatch from the nymphs. The hatched flies are counted.

[8] = system: mustard beetle; assay: Mustard beetle test (sprayed mustard seedlings); format: in vivo; settings: concentration 1%
Procedure: Two weeks' old mustard seedlings are sprayed with a solution of 0.1 g of the test compound, 0.5 ml of dimethyl sulfoxide, and 10 μl of 50 EC composition in 10 ml of water. After the spray is dried, 20 mustard larvae of the II. stage are placed on each plant. The sprayed plants are charged every second day. The evaluation is based on the number of the imagos hatching from the nymphs.

[9] = system: cabbage butterfly (Pieris brassicae); assay: Cabbage butterfly test (sprayed cabbage seedlings); format: in vivo; settings: Pieris brassicae; 50 EC, 0.1%; read-out: Killing rate of larvae
Procedure: From the 50 EC of the test compound a diluted series is prepared with water and the host seedlings (cabbage) are sprayed with this composition until the spray runs down. The spray is allowed to dry whereupon 20 young larvae of the II. stage are placed on each treated plant and the seedlings are kept under so-called "long-day" illumination (18 hours of illumination and 6 hours of darkness). The nibbled plants are replaced by similarly sprayed plants if necessary. The killing rate of the insects, the growth rate of the larvae and the morphological deformations of the surviving nymphs and adults are registered.
In the 50 EC compositions the concentration of compounds 23 and 25 amounts to 0.01% and that of the other compounds to 0.1%.

[10] = 200 μg/ml, first test, read-out: mortality 1.
[11] = 200 μg/ml, second test, read-out: mortality 2.
[12] = 200 μg/ml, read-out: mortality Average
[13] = 400 μg/ml, first test, read-out: mortality 1.
[14] = 400 μg/ml, second test, read-out: mortality 2.
[15] = 400 μg/ml, read-out: mortality Average

Compound: CC1(C)CC(=O)c2c(O)cc(O)cc2O1 [5-OH 7-OH 4-OH, 5,7-dihydroxy-2,2-dimethyl-4-chromanone]
- pK7 (1.) [1]: 7.4
- pK7 (2.) [2]: 7.0
- pKX (2.) [2]: 11.6

Compound: CC1(C)CC(=O)c2cc(O)c(O)cc2O1 [6-OH 7-OH 4-H, 6,7-dihydroxy-2,2-dimethyl-4-chromanone]
- pK7 (1.) [1]: 6.8
- pK7 (2.) [2]: 6.9
- pKX (2.) [2]: 11.4

Compound: CC1(C)CC(=O)c2ccc(O)c(O)c2O1 [8-OH 7-OH 4-H, 7,8-dihydroxy-2,2-dimethyl-4-chromanone]
- pK7 (1.) [1]: 7.2
- pK7 (2.) [2]: 7.2
- pKX (2.) [2]: 11.6

Compound: COc1cc2c(cc1OC)OC(C)(C)C=C2 [Compound 1, 6,7-dimethoxy-2,2-dimethyl-2H-chromene, reference compound]
- Nematocidal effect ([3]; 200 μg/ml): strong
- Nematocidal effect ([3]; 400 μg/ml): strong
- mortality at 200 µg/mL [3, 10]: 76%
- mortality at 200 µg/mL [3, 11]: 76%
- mortality at 200 µg/mL [3, 12]: 76%
- mortality at 400 µg/mL [3, 13]: 98%
- mortality at 400 µg/mL [3, 14]: 95%
- mortality at 400 µg/mL [3, 15]: 97%
- LD50 [4]: 0.6 μg/insect
- Sterilizing effect [4]: 10 μg/insect
- AJH effect [4]: 1 μg/insect
- Size of descendant population ([5]; 200 μg/ml): no descendants
- Size of descendant population ([5]; 400 μg/ml): no descendants

Compound: CCOc1cc2c(cc1OC)C=CC(C)(C)O2 [Compound 3, 6-methoxy-7-ethoxy-2,2-dimethyl-2H-chromene, reference compound]
- Nematocidal effect ([3]; 400 μg/ml): strong
- mortality at 200 µg/mL [3, 10]: 24%
- mortality at 200 µg/mL [3, 11]: 20%
- mortality at 200 µg/mL [3, 12]: 22%
- mortality at 400 µg/mL [3, 13]: 100%
- mortality at 400 µg/mL [3, 14]: 95%
- mortality at 400 µg/mL [3, 15]: 97%
- LD50 [4]: 0.5 μg/insect
- Sterilizing effect [4]: 10 μg/insect
- AJH effect [4]: 10 μg/insect
- effectiveness/activity relative to P2 [6]: ten times more active; also recorded: ten times more effective
- Size of descendant population ([5]; 200 μg/ml): some descendants
- Size of descendant population ([5]; 400 μg/ml): no descendants

Compound: Cc1cc(OCC(C)C)cc2c1C=CC(C)(C)O2 [Compound 42]
- Survival adult [7]: 25.5%
- Survival nymph [7]: 45.4%
- Survival, adults [8]: 27%
- pest or weed control at 0.1 % [9]: 100%

Compound: CCCOc1ccc2c(c1OC)OC(C)(C)C=C2 [Compound 51]
- Survival adult [7]: 0%
- Survival nymph [7]: 12%
- Survival, adults [8]: 45%
- pest or weed control at 0.1 % [9]: 100%
